In the data set the test system is adult worms of S. japonicum (Chinese strain). Kind of data set: microbe, parasite or virus in culture. The settings on record: for Mortality (%) 72 h: 100 μM, adult worms in vitro; for mortality at 100 µM: Schistosoma japonicum. As to the method: S. japonicum cercariae (Chinese strain) were acquired from infected Oncomelania hupensis snails (Wuxi Insect Vector Biology Co., Ltd., China) ([28]). ICR mice (6–8 weeks, 22–25 g; Hunan SJA Laboratory Animal Co., Ltd., China) were percutaneously infected via abdominal exposure to 60 ± 5 cercariae. Adult schistosomes were perfused from the hepatic portal system at 35 dpi using a modified Duvall and DeWitt method ([29]). Animals were housed under controlled conditions (22°C ± 1°C, 12 h light/dark cycle) with ad libitum access to feed and water.
Adult S. japonicum worms isolated from ICR mice were maintained in sterile culture medium (2.0 mL) comprising 77% RPMI 1640 (Lanzhou Bailing Biotech Co., Ltd.; pH 7.5, HEPES-buffered), 20% heat-inactivated fetal bovine serum (Lanzhou Minhai Bio-Engineering Co., Ltd.), and 3% penicillin-streptomycin (100×; 10,000 U/mL penicillin, 10,000 μg/mL streptomycin; New Cell & Molecular Biotech Co., Ltd., China). Incubation was performed at 37°C under 5% CO2. Test compounds were dissolved in DMSO as 0.1 M stock solutions; 2.0 μL aliquots were added to worm-containing media (final concentration: 100 μM in 0.1% DMSO). Negative controls received equivalent volumes of vehicle (0.1% DMSO in RPMI 1640). Parasite viability (motor activity, tegumental integrity, survival) was assessed every 12 h for 72 h using an Olympus CKX53 inverted microscope (n ≥ 3 independent replicates).

Setting [1] is: 24 h, read-out: Mortality (%) 24 h, 100 μM, 24 h, adult worms in vitro.
Where [2] appears, read: 36 h, read-out: Mortality (%) 36 h, 100 μM, 36 h, adult worms in vitro.
The mark [3] stands for this setting: 48 h, read-out: Mortality (%) 48 h, 100 μM, 48 h, adult worms in vitro.
Where [4] appears, read: 72 h, read-out: Mortality (%) 72 h, 100 μM, 72 h, adult worms in vitro.

The record followed here is article PMC12889028, “Discovery and biological evaluation of novel N-aryl-N′-methylbenzodrazides against Schistosoma japonicum in vitro and in vivo” (Microbiology Spectrum, 2025).

Like-named read-outs stand apart in the source and are kept apart here.

A word on the mortality: it is the share of the test organisms that died. For `CN(NC(=O)c1ccc(Cl)c(Cl)c1)c1ccc(Cl)c(Cl)c1` [Compound 13], the “Mortality (%) 72 h” value (72 h) is 100%. Also, the mortality at 100 µM reads like this: under setting [1], 0%; under setting [2], 15%; under setting [3], 50%; under setting [4], more than 80%.
Turning to `CN(NC(=O)c1ccc(F)c(C(F)(F)F)c1)c1ccc(Cl)c(Cl)c1` [Compound 25], the mortality at 100 µM under setting [1] amounted to 0%, the mortality at 100 µM under setting [2] turned out to be 0%, the mortality at 100 µM under setting [3] turned out to be 30% and the mortality at 100 µM under setting [4] was determined as 80%.
As for `CN(NC(=O)c1cccc(Cl)c1)c1ccc(Cl)c(Cl)c1` [Compound 23], where the note is “72 h”, the “Mortality (%) 72 h” value is on record as 95%. The mortality at 100 µM under setting [1] worked out at 0%, the mortality at 100 µM under setting [2] came out at 5%, the mortality at 100 µM under setting [3] amounted to 40% and the mortality at 100 µM under setting [4] was more than 90%.
In the case of `CN(NC(=O)c1ccc(Cl)c(Cl)c1)c1ccc(Cl)c(C(F)(F)F)c1` [Compound 14], the “Mortality (%) 72 h” value (72 h) came to 95%. For the same compound, the mortality at 100 µM is 15% under setting [1], 25% under setting [2], 55% under setting [3] and more than 80% under setting [4].
As to `CN(NC(=O)c1ccc(Br)cc1)c1cc(Cl)cc(Cl)c1` [Compound 40], the mortality at 100 µM reads like this: under setting [1], 0%; under setting [2], 20%; under setting [3], 70%; under setting [4], 100%.
With `CN(NC(=O)c1ccc(Br)cc1)c1cccc(Br)c1` [Compound 35], the mortality at 100 µM is, setting by setting: under setting [1], 0%; under setting [2], 0%; under setting [3], 30%; under setting [4], 60%.
In the case of `CN(NC(=O)c1ccc(Br)cc1)c1cccc(Cl)c1` [Compound 34], the mortality at 100 µM under setting [1] came to 0%, the mortality at 100 µM under setting [2] is 0%, the mortality at 100 µM under setting [3] worked out at 0% and the mortality at 100 µM under setting [4] worked out at 90%.
Regarding `CN(NC(=O)c1ccc(Br)cc1)c1ccc(F)cc1` [Compound 28], the mortality at 100 µM under setting [1] amounted to 0%, the mortality at 100 µM under setting [2] came to 0%, the mortality at 100 µM under setting [3] is 0% and the mortality at 100 µM under setting [4] was 0%.
On to `Cc1ccccc1N(C)NC(=O)c1ccc(Br)cc1` [Compound 37], for which the mortality at 100 µM runs as follows: under setting [1], 0%; under setting [2], 0%; under setting [3], 0%; under setting [4], 0%.
On to `CN(NC(=O)c1ccc(Cl)c(Cl)c1)c1ccccc1F` [Compound 11], for which the mortality at 100 µM by setting is: under setting [1], 0%; under setting [2], 0%; under setting [3], 0%; under setting [4], 0%.
Take `Cc1ccc(N(C)NC(=O)c2ccc(Br)cc2)cc1` [Compound 26]: the mortality at 100 µM worked out at 0% under setting [1], 0% under setting [2], 10% under setting [3] and 10% under setting [4].
Regarding `Cc1cccc(C(=O)NN(C)c2ccc(Cl)c(Cl)c2)c1` [Compound 22], the mortality at 100 µM is 0% under setting [1], 0% under setting [2], 0% under setting [3] and 70% under setting [4].
As for `CN(NC(=O)c1ccc(Cl)c(Cl)c1)c1ccc(C#N)cc1` [Compound 6], the mortality at 100 µM under setting [1] is 0%, the mortality at 100 µM under setting [2] amounted to 0%, the mortality at 100 µM under setting [3] was 0% and the mortality at 100 µM under setting [4] was found to be 20%.
In the case of `Cc1ccc(C(=O)NN(C)c2ccc(Cl)c(Cl)c2)cc1` [Compound 15], the mortality at 100 µM under setting [1] turned out to be 0%, the mortality at 100 µM under setting [2] was 20%, the mortality at 100 µM under setting [3] is 35% and the mortality at 100 µM under setting [4] turned out to be 65%.
`CN(NC(=O)c1ccc(Cl)c(Cl)c1)c1cccc(Br)c1` [Compound 9]: the “Mortality (%) 72 h” value (72 h) was 85%. Also, the mortality at 100 µM runs as follows: under setting [1], 0%; under setting [2], 0%; under setting [3], 15%; under setting [4], more than 80%.
Turning to `CN(NC(=O)c1ccc(Br)cc1)c1ccc(Br)cc1` [Compound 30], the mortality at 100 µM was found to be 0% under setting [1], 10% under setting [2], 65% under setting [3] and 100% under setting [4].
On to `CN(NC(=O)c1ccc(Br)cc1)c1cccc(C(F)(F)F)c1` [Compound 36], for which the mortality at 100 µM under setting [1] is 0%, the mortality at 100 µM under setting [2] amounted to 0%, the mortality at 100 µM under setting [3] is 10% and the mortality at 100 µM under setting [4] stood at 80%.
In the case of `CN(NC(=O)c1ccc(C(F)(F)F)cc1)c1ccc(Cl)c(Cl)c1` [Compound 19], the mortality at 100 µM stood at 0% under setting [1], 0% under setting [2], 35% under setting [3] and 80% under setting [4].
On to `CN(NC(=O)c1ccc(Cl)c(Cl)c1)c1ccc(F)cc1` [Compound 3], for which the “Mortality (%) 72 h” value (72 h) is recorded as 85%. Further, the mortality at 100 µM under setting [1] is 0%, the mortality at 100 µM under setting [2] turned out to be 0%, the mortality at 100 µM under setting [3] is 45% and the mortality at 100 µM under setting [4] was more than 80%.
Turning to `CN(NC(=O)c1ccc(Cl)cc1)c1ccc(Cl)c(Cl)c1` [Compound 17], the mortality at 100 µM under setting [1] was 0%, the mortality at 100 µM under setting [2] came to 5%, the mortality at 100 µM under setting [3] turned out to be 25% and the mortality at 100 µM under setting [4] amounted to 70%.
For `COc1ccc(N(C)NC(=O)c2ccc(Br)cc2)cc1` [Compound 27], the mortality at 100 µM was determined as 0% under setting [1], 0% under setting [2], 0% under setting [3] and 0% under setting [4].
For `Cc1cccc(N(C)NC(=O)c2ccc(Cl)c(Cl)c2)c1` [Compound 7], the mortality at 100 µM is, setting by setting: under setting [1], 0%; under setting [2], 0%; under setting [3], 0%; under setting [4], 0%.
Regarding `CN(NC(=O)c1ccc(Br)cc1)c1ccccc1Cl` [Compound 39], the mortality at 100 µM by setting is: under setting [1], 0%; under setting [2], 0%; under setting [3], 10%; under setting [4], 20%.
For the compound `CN(NC(=O)c1ccc(F)c(F)c1)c1ccc(Cl)c(Cl)c1` [Compound 24], the “Mortality (%) 72 h” value (72 h) is recorded as 90%. Besides, the mortality at 100 µM by setting is: under setting [1], 0%; under setting [2], 5%; under setting [3], 45%; under setting [4], more than 90%.
Regarding `Cc1ccc(N(C)NC(=O)c2ccc(Cl)c(Cl)c2)cc1` [Compound 1], where the note is “72 h”, the “Mortality (%) 72 h” value is reported as 100%. Moreover, the mortality at 100 µM reads like this: under setting [1], 0%; under setting [2], 5%; under setting [3], 60%; under setting [4], more than 80%.
Consider `CN(NC(=O)c1ccc(Br)cc1)c1ccc(C(F)(F)F)cc1` [Compound 31], for which the mortality at 100 µM under setting [1] was 0%, the mortality at 100 µM under setting [2] was 10%, the mortality at 100 µM under setting [3] turned out to be 55% and the mortality at 100 µM under setting [4] came to 75%.
For the compound `CN(NC(=O)c1ccc(Cl)c(Cl)c1)c1ccc(Cl)cc1` [Compound 4], the mortality at 100 µM came out at 0% under setting [1], 0% under setting [2], 0% under setting [3] and 10% under setting [4].
For `CN(NC(=O)c1ccc(Br)cc1)c1ccccc1F` [Compound 38], the mortality at 100 µM is 0% under setting [1], 0% under setting [2], 10% under setting [3] and 10% under setting [4].
